{"source": "patent US6897317B2", "about": "“4-Phenyltetrahydrochinoline utilized as an inhibitor of the cholesterol ester transfer protein” (Bayer Aktiengesellschaft, priority 1997, dated 2005)"}
{"test_system": "not given", "test": "not given", "conditions": "not given", "units": {"melting point": "°C"}}
{"compound": "CCOc1ccc(-c2c([C@@H](F)c3ccc(C(F)(F)F)cc3)c(C3CCCC3)nc3c2[C@@H](O)CC(C)(C)C3)cc1.Cl", "melting point": "206 to 207"}
{"compound": "CC1(C)Cc2nc(C3CCCC3)c(C(=O)c3ccc(C(F)(F)F)cc3)c(-c3ccc(F)c(F)c3)c2[C@@H](O)C1", "note": "[Example 46]", "melting point": "166 to 168"}
{"compound": "COc1ccc(-c2c(C(=O)c3ccc(C(F)(F)F)cc3)c(C3CCCC3)nc3c2[C@@H](O)CC(C)(C)C3)cc1", "note": "[Example 47]", "melting point": "171 to 174"}
{"compound": "CC1(C)Cc2nc(C3CCCC3)c(C(=O)c3ccc(C(F)(F)F)cc3)c(-c3ccc(C(F)(F)F)cc3)c2[C@@H](O)C1", "note": "[Example 48]", "melting point": "157 to 162"}
{"compound": "CC1(C)Cc2nc(C3CCCC3)c(C(=O)c3ccc(C(F)(F)F)cc3)c(-c3cccc(F)c3)c2[C@@H](O)C1", "note": "[Example 49]", "melting point": "167 to 168"}
{"compound": "Cc1ccc(-c2c(C(=O)c3ccc(C(F)(F)F)cc3)c(C3CCCC3)nc3c2[C@@H](O)CC(C)(C)C3)cc1", "note": "[Example 51]", "melting point": "153 to 155"}
{"compound": "CC1(C)Cc2nc(C3CCCC3)c(C(=O)c3ccc(C(F)(F)F)cc3)c(-c3ccc(Cl)cc3)c2[C@@H](O)C1", "note": "[Example 52]", "melting point": "168 to 169"}
{"compound": "Cc1ccc(-c2c([C@@H](F)c3ccc(C(F)(F)F)cc3)c(C3CCCC3)nc3c2[C@@H](O)CC(C)(C)C3)cc1", "note": "[Example 53]", "melting point": "156 to 158"}
{"compound": "CC1(C)Cc2nc(C3CCCC3)c([C@@H](F)c3ccc(C(F)(F)F)cc3)c(-c3ccc(C(F)(F)F)cc3)c2[C@@H](O)C1", "note": "[Example 54]", "melting point": "175 to 176"}
{"compound": "CC1(C)Cc2nc(C3CCCC3)c([C@@H](F)c3ccc(C(F)(F)F)cc3)c(-c3ccc(Cl)cc3)c2[C@@H](O)C1", "note": "[Example 55]", "melting point": "138 to 139"}
{"compound": "CC1(C)Cc2nc(C3CCCC3)c(Cc3ccc(C(F)(F)F)cc3)c(-c3ccc(Cl)cc3)c2[C@@H](O)C1", "note": "[Example 56]", "melting point": "136 to 137"}
{"compound": "CC1(C)Cc2nc(C3CCCC3)c([C@@H](F)c3ccc(C(F)(F)F)cc3)c(-c3cccc(F)c3)c2[C@@H](O)C1", "note": "[Example 61]", "melting point": 129}
{"compound": "Cc1ccc(-c2c(Cc3ccc(C(F)(F)F)cc3)c(C3CCCC3)nc3c2[C@@H](O)CC(C)(C)C3)cc1", "note": "[Example 62]", "melting point": "106 to 108"}
{"target": "T1, cholesterol ester transfer protein (CETP) (Homo sapiens, UniProt P11597)", "T1 construct": "CETP is obtained in partially purified form from human plasma by differential centrifugation and column chromatography; from tissue; host or cells: human plasma", "T1 sequence (P11597 18-493)": "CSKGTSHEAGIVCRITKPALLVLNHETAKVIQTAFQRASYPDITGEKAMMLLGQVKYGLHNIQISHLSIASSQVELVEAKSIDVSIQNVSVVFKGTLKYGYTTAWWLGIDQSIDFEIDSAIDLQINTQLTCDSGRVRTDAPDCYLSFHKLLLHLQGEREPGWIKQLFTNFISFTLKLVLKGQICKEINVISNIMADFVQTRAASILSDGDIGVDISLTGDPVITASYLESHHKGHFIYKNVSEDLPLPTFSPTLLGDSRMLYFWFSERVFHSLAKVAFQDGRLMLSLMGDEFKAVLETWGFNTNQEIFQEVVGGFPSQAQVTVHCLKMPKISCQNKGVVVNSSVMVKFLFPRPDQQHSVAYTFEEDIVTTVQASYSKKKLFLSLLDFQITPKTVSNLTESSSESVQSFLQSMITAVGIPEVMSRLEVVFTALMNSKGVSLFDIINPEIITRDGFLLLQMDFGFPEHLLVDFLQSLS", "test": "CETP inhibition test (3H-cholesterol ester transfer from HDL to biotinylated LDL, SPA)", "type": "biochemical", "conditions": "CETP partially purified from human plasma; 37° C., 18 h; concentration at which transfer is reduced by half", "procedure": "Preparation of CETP • CETP is obtained in partially purified form from human plasma by differential centrifugation and column chromatography and used for the test. For this purpose, human plasma is adjusted to a density of 1.21 g per ml using NaBr and centrifuged at 50,000 rpm at 4° C. for 18 h. The bottom fraction (d>1.21 g/ml) is applied to a Sephadex®Phenyl-Sepharose 4B (Pharmacia) column, washed with 0.15 m NaCl/0.001 M TrisHCl pH 7.4 and subsequently eluted using dist. water. The CETP-active fractions are pooled, dialysed against 50 mM Na-acetate pH 4.5 and applied to a CM-Sepharose® (Pharmacia) column. Elution is subsequently carried out using a linear gradient (0-1 M NaCl). The pooled CETP fractions are dialysed against 10 mM Tris HCl pH 7.4 and subsequently purified further by chromatography over a Mono Q® column (Pharmacia).\nPreparation of Radioactively Labelled HDL • 50 ml of fresh human EDTA plasma are adjusted to a density of 1.12 using NaBr and centrifuged at 4° C. in a Ty 65 rotor at 50,000 rpm for 18 h. […] CETP test • To assess the CETP activity, the transfer of ^3H-cholesterol ester from human HD-lipoproteins to biotinylated LD-lipoproteins is measured. • The reaction is terminated by addition of Streptavidin-SPA® beads (Amersham) and the transferred radioactivity is directly measured in a liquid scintillation counter. • In the assay mixture, […] (˜50,000 cpm) with 10 ml of Biotin-LDL (Amersham) in 50 mM Hepes/0.15 m NaCl/0.1% bovine serum albumin/0.05% NaN3 pH 7.4 are incubated with 10 ml of CETP (1 mg/ml) and 3 ml of a solution of the substance to be tested (dissolved in 10% DMSO/1% BSA) at 37° C. for 18 h. […] of the SPA streptavidin bead solution (TRKQ 7005) are subsequently added, the mixture is incubated with shaking for another 1 h and subsequently measured in a scintillation counter. • The controls used are corresponding incubations with 10 ml of buffer, 10 ml of CETP at 4° C. and 10 ml of CETP at 37° C. • The activity which is transferred in the control experiments with CETP at 37° C. is taken to be 100% transfer. […]", "units": {"IC50": "nM"}}
{"compound": "CC1(C)Cc2nc(C3CCCC3)c(C(F)c3ccc(C(F)(F)F)cc3)c(-c3ccc(F)cc3)c2C(C)(O)C1", "note": "(single isomer, unassigned) [Example 1, 2-Cyclopentyl-4-(4-fluorophenyl)-3-[fluoro-(4-trifluoromethyl-phenyl)-methyl]-5-methyl-7,7-dimethyl-5,6,7,8-tetrahydro-quinolin-5-ol]", "IC50": 6}
{"compound": "Cc1ccc(-c2c([C@@H](F)c3ccc(C(F)(F)F)cc3)c(C3CCCC3)nc3c2[C@@H](O)CC(C)(C)C3)cc1", "note": "[Example 53]", "IC50": 10}
{"compound": "CC1(C)Cc2nc(C3CCCC3)c([C@@H](F)c3ccc(C(F)(F)F)cc3)c(-c3cccc(F)c3)c2[C@@H](O)C1", "note": "[Example 61]", "IC50": 23}
